In patent US20230348415A1, “BISPECIFIC ANTAGONISTS OF RETINOL-BINDING PROTEIN 4 THAT STABILIZE TRANSTHYRETIN TETRAMERS, THEIR PREPARATION, AND USE IN THE TREATMENT OF COMMON AGE-RELATED COMORBIDITIES” (The Trustees of Columbia University in the City of New York, priority 2020, published 2023):

Assay: In vivo PK in CD-1 mice (IV and PO)
Design: species or system mouse
Conditions: male CD-1 mice
Procedure: • IV dosing vehicles: 3% DMA/45% PEG300/12% ethanol/40% sterile water • PO dosing vehicle: 2% Tween 80 in 0.9% saline • Dose formulation: The dose formulation was prepared by the step-wise addition (in the order listed) of the individual components of the vehicle to a weighed quantity of test compound in a volume that yielded the desired final concentration. Each formulation was prepared by mixing a weighed quantity of test compound with the appropriate volume of vehicle. • Dosing Solution Analysis: The dosing solutions were analyzed by LC-MS/MS. The dosing solutions were diluted into mouse blood and analyzed in triplicate. All concentrations are expressed as mg/mL of the free base. The nominal dosing level was used in all calculations for Group 1.
• Species and strain: mouse; male CD-1 • Mean weight: 0.034 kg for the IV arm; 0.027 kg for PO arm • Number: 6 animals total (three animals per dosing group (Group 1 (IV) and Group 2 (PO)), per study) • COMPLIANCE: This non-clinical study followed established practices and standard operating procedures of Absorption Systems as well as the study protocol. This study was exploratory in nature and was not conducted in accordance with the principles set forth in the United States Food and Drug Administration (FDA) Good Laboratory Practice (GLP) Regulations, 21 Code of Federal regulations (CFR) Part 58. The report is archived in a validated scientific data management system. Electronic signatures comply with the regulation 21 CFR Part 11.
Blood was collected from mice at pre-dose and at 5, 15 and 30 min, and 1, 2, 4, 8, 24 and 48 h post-dose. Hemolyzed blood samples were extracted by protein precipitation using acetonitrile. Following protein extraction with acetonitrile, compound levels were measured by LC-MS/MS. Pharmacokinetic parameters were calculated from the time course of the blood concentrations. Pharmacokinetic parameters were determined with Phoenix WinNonlin (v8.0) software using a non-compartmental model. The maximum blood concentrations (CO) after IV dosing were estimated by extrapolation of the first two time points back to t=0. The maximum blood concentration (Cmax) and the time to reach maximum blood concentration (tmax) after PO dosing were observed from the data. The area under the time concentration curve (AUC) was calculated using the linear trapezoidal rule with calculation to the last quantifiable data point, and with extrapolation to infinity if applicable. Blood half-life (t ½) was calculated from 0.693/slope of the terminal elimination phase. Mean residence time, MRT, was calculated by dividing the area under the moment curve (AUMC) by the AUC. Clearance (CL) was calculated from dose/AUC. Steady-state volume of distribution (Vss) was calculated from CL*MRT. Bioavailability was determined by dividing the individual dose normalized PO AUC∞ values by the average dose-normalized IV AUC∞ value. Any samples below the limit of quantitation (1.00 ng/mL) were treated as zero for pharmacokinetic data analysis.

Compound: Cc1cc(C(=O)O)nc(N2CCC(COc3ccccc3C(F)(F)F)C2)n1 (racemic) [Compound (±)-44, (±)-6-Methyl-2-(3-((2-(trifluoromethyl)phenoxy)methyl)pyrrolidin-1-yl)pyrimidine-4-carboxylic Acid]
- CL (IV 2 mg/kg): 0.832 mL/min/kg
- AUCINF (PO 5 mg/kg): 52439 ng·h/mL
- t1/2 (PO 5 mg/kg): 9.9 h
- AUC(0-inf) (mouse, whole blood, IV 2 mg/kg): 40300 ng·h/mL
- AUC(0-t) (mouse, whole blood, IV 2 mg/kg): 39500 ng·h/mL
- clearance (mouse, whole blood, IV 2 mg/kg): 0.832 mL/min/kg
- half-life (mouse, whole blood, IV 2 mg/kg): 8.6 h
- C0 (mouse, whole blood, IV 2 mg/kg, blood): 9130 ng/mL
- Vd (mouse, whole blood, IV 2 mg/kg, read-out: Vss): 0.518 L/kg
- bioavailability (mouse, whole blood, PO 5 mg/kg vs IV 2 mg/kg): 52%
- AUC(0-inf) (mouse, whole blood, PO 5 mg/kg): 52400 ng·h/mL
- AUC(0-t) (mouse, whole blood, PO 5 mg/kg): 50400 ng·h/mL
- Tmax (mouse, whole blood, PO 5 mg/kg): 0.83 h
- half-life (mouse, whole blood, PO 5 mg/kg): 9.9 h
- Cmax (mouse, whole blood, PO 5 mg/kg, blood): 3030 ng/mL
